Experimental data reported in patent US20230081679A1, “SURFACTANT VESICLES FOR VACCINE FORMULATION, TARGETED DRUG DELIVERY, AND TRANSFECTION” (University of Maryland, College Park, priority 2021, published 2023).
Where two headings read alike, the source gives them in different places.

Key:
[1] = Encapsulation in catanionic SVs (gel filtration, then NMR or ICP-AES); format: physicochemical; settings: PBS 1×
Protocol: Vesicles were formed in the presence of several different sugars, purified by gel filtration, and the encapsulated sugar concentration measured by NMR (Table 3).
Table 6 summarizes the EE and drug concentration achieved with each of the chemotherapeutic agents under the standard SDBS-rich SVs formulation method.
The gel was flushed with two column-volumes of PBS 1×. Next, 1.0 mL of crude vesicle suspension was loaded onto the column and gravity fed into the gel. 2.0 mL of PBS 1× eluent was then added to the column and the fractions discarded. 1.5 mL of PBS 1× was then added to the column and the fractions collected to yield purified opaque light blue vesicles. The column was cleaned with 2.0 mL of 0.1% Triton X-100 in water followed by two column volumes of PBS 1×.

[2] = for Second Order Rate Constant k’: 60:40 w/w SDBS:CTAT, 1% w/w total surfactant
Protocol: To assess the rate of encapsulated substrate release, dialysis was initially considered. […] The assay was to remove aliquots from SVs-encapsulated formulations at time intervals and re-purify the aliquot by size-exclusion chromatography (SEC). Vesicle fractions elute in the initial fractions while release carbohydrate is retained on the column and elutes in the later fractions. The quantity of carbohydrate released was determined by ^1H-NMR (FIG. 28).
Using the SEC method, the initial rate of glucose release was analyzed for vesicle encapsulated glucose solutions at varying concentrations. […] Therefore, a simple model with first-order release kinetics across the vesicle membrane (Eq. 1) was used, from which the rate law (Eq. 2) can be derived, where [Sugar]in and [Sugar]out are the sugar concentrations inside and outside the vesicle, respectively.
The release for each vesicle-encapsulated sugar preparation was monitored for at least two half-lives (monosaccharides) and at least one half-life (disaccharides and maltotriose). The release profile for each substrate was then fit to Eq. 3 by a least squares method, and the first order rate constant k1 was calculated. The reported uncertainties represent the standard deviation in the measured k1 of three separate batches of vesicle-encapsulated sugar.
The t1/2 was calculated from each k1, and the permeability coefficient (P) was calculated using k1 and the vesicle size (from DLS experiments) according to: […]

[3] = Vesicle radius and PDI by DLS
Protocol: To measure the average size of the vesicles, 100 μL of the solution was taken and diluted to 1 mL with water and analyzed using dynamic light scattering (DLS).

[4] = sugar vesicles, 500 mM sugar, PBS 1×, after 24 h
[5] = 100 mM glucosamine instead of 500 mM
[6] = sugar vesicles, 100 mM glucosamine, PBS 1×, after 24 h
[7] = chemotherapeutic drugs in SDBS-rich SVs
[8] = drug release from catanionic SVs, PBS 1×
[9] = 250 mM cellobiose instead of 500 mM
[10] = sugar vesicles, 250 mM cellobiose, PBS 1×, after 24 h
[11] = 25° C., PBS 1× pH 7.4, 60:40 w/w SDBS rich vesicles, 500 mM sugar

maltotriose
EE (%) ([1]; prepared in 500 mM sugar): 0.65% | [Sugar], mM (in purified vesicles) ([1]; prepared in 500 mM sugar): 2.2 ± 0.2 mM | Second Order Rate Constant k’ ([2]; 25° C., PBS 1×): 7.6 ± 0.8 L/mol/h | Vesicle PDI [3, 4]: 0.13 | Vesicle Radius (nm) [3, 4]: 95 nm

O=C[C@H](O)[C@H](O)[C@H](O)CO [D-ribose]
EE (%) ([1]; prepared in 500 mM sugar): 0.084% | [Sugar], mM (in purified vesicles) ([1]; prepared in 500 mM sugar): 0.28 ± 0.02 mM | Vesicle PDI [3, 4]: 0.20 | Vesicle Radius (nm) [3, 4]: 72 nm

N[C@H]1C(O)O[C@H](CO)[C@@H](O)[C@@H]1O (stereo partly drawn) [D-glucosamine]
EE (%) [1, 5]: 3.5% | [Sugar], mM (in purified vesicles) [1, 5]: 2.3 ± 0.2 mM | First Order Rate Constant k ([2]; 25° C., PBS 1× pH 7.4, 100 mM sugar concentration): 0.11 ± 0.01 h⁻¹ | Vesicle PDI [3, 6]: 0.23 | Vesicle Radius (nm) [3, 6]: 78 nm

N.N.[Cl][Pt][Cl] [Cisplatin, cisplatin]
EE (%) [1, 7]: 2.1% | [Drug], mM (in purified vesicles) [1, 7]: 0.05 ± 0.01 mM | First Order Rate Constant k [2, 8]: 0.78 ± 0.06 h⁻¹ | Vesicle PDI ([3]; drug-loaded catanionic SVs): 0.16 | Vesicle Radius (nm) ([3]; drug-loaded catanionic SVs): 76 nm

OC[C@H]1O[C@@H](O[C@H]2[C@H](O)[C@@H](O)[C@H](O)O[C@@H]2CO)[C@H](O)[C@@H](O)[C@@H]1O [D-cellobiose]
EE (%) [1, 9]: 1.2% | [Sugar], mM (in purified vesicles) [1, 9]: 2.0 ± 0.4 mM | Second Order Rate Constant k’ ([2]; 25° C., PBS 1×): 2.6 ± 0.5 L/mol/h | Vesicle PDI [3, 10]: 0.15 | Vesicle Radius (nm) [3, 10]: 90 nm

COC1OC(CO)C(O)C(O)C1O [α-D-methylglucoside]
EE (%) ([1]; prepared in 500 mM sugar): 0.17% | [Sugar], mM (in purified vesicles) ([1]; prepared in 500 mM sugar): 0.6 ± 0.2 mM | First Order Rate Constant k [2, 11]: 3.7 ± 0.5 h⁻¹ | Vesicle PDI [3, 4]: 0.19 | Vesicle Radius (nm) [3, 4]: 75 nm

O=S(=O)(O)N[C@H]1C(O)O[C@H](CO)[C@@H](O)[C@@H]1O (stereo partly drawn) [D-glucosamine-2-sulfate]
EE (%) ([1]; prepared in 500 mM sugar): 1.0% | [Sugar], mM (in purified vesicles) ([1]; prepared in 500 mM sugar): 3.3 ± 0.7 mM | First Order Rate Constant k [2, 11]: 0.29 ± 0.06 h⁻¹ | Vesicle PDI [3, 4]: 0.06 | Vesicle Radius (nm) [3, 4]: 69 nm

O=C[C@H](O)[C@@H](O)[C@@H](O)[C@H](O)CO [D-galactose]
EE (%) ([1]; prepared in 500 mM sugar): 0.82% | [Sugar], mM (in purified vesicles) ([1]; prepared in 500 mM sugar): 2.7 ± 0.7 mM | First Order Rate Constant k [2, 11]: 0.16 ± 0.02 h⁻¹ | Vesicle PDI [3, 4]: 0.20 | Vesicle Radius (nm) [3, 4]: 83 nm

O=C[C@@H](O)[C@@H](O)[C@H](O)[C@H](O)CO [D-mannose]
EE (%) ([1]; prepared in 500 mM sugar): 0.87% | [Sugar], mM (in purified vesicles) ([1]; prepared in 500 mM sugar): 2.9 ± 0.2 mM | First Order Rate Constant k [2, 11]: 0.26 ± 0.06 h⁻¹ | Vesicle PDI [3, 4]: 0.18 | Vesicle Radius (nm) [3, 4]: 74 nm

Nc1nc2[nH]cc(CCc3ccc(C(=O)N[C@@H](CCC(=O)O)C(=O)O)cc3)c2c(=O)[nH]1 [Pemetrexed, pemetrexed]
EE (%) [1, 7]: 0.80% | [Drug], mM (in purified vesicles) [1, 7]: 0.45 ± 0.09 mM | Half-life t1/2 [2]: 47 ± 4 h | First Order Rate Constant k [2, 8]: 0.015 ± 0.001 h⁻¹ | Vesicle PDI ([3]; drug-loaded catanionic SVs): 0.17 | Vesicle Radius (nm) ([3]; drug-loaded catanionic SVs): 73 nm

OC[C@H]1O[C@@](CO)(O[C@H]2O[C@H](CO)[C@@H](O)[C@H](O)[C@H]2O)[C@@H](O)[C@@H]1O [D-sucrose]
EE (%) ([1]; prepared in 500 mM sugar): 0.86% | [Sugar], mM (in purified vesicles) ([1]; prepared in 500 mM sugar): 3.2 ± 0.4 mM | Second Order Rate Constant k’ ([2]; 25° C., PBS 1×): 6.7 ± 0.4 L/mol/h | fold faster leakage than maltose ([2]; second order release from SVs): 5.6 fold | Vesicle PDI [3, 4]: 0.12 | Vesicle Radius (nm) [3, 4]: 82 nm
